Laboratory results: patent publication US20240197800A1, “Aristotelia chilensis EXTRACTS FOR TREATING FUNGAL INFECTIONS” (Phytonet Doo Beograd-rakovica, priority 2021, published 2024)

Assays:
Candida albicans SC5314 = test: zebrafish embryo hindbrain infection model, inhibition of candida filamentation in vivo; design: species or system Candida albicans (host: zebrafish embryo)
Description: The model of the brain infection (hindbrain) of the zebrafish embryo with Candida albicans, described in the literature, is an animal model of the infection system which due to the optical transparency of the embryo body provides the ability to examine and monitor the effect of applied therapeutics on replication, filamentation and fungi dissemination through the body of the zebrafish embryo as a host. The embryos at the developmental stage of 32-34 hpf were injected into the brain through an optic vesicle with 50-75 Candida albicans SC5314 cells, previously labeled with green fluorescent dye. Candida inoculum was prepared in 5% polyvinylpyrrolidone (PVP) solution. Two hours after the microinjection of candida, the infected embryos were treated with Maqui berry extract at a concentration of 0.0625 mg/mL, 0.125 mg/mL and 0.25 mg/mL, as well as nystatin at a concentration of 1 μg/mL (½MIK) and 0.5 μg/mL (¼MIK). Beside individual treatments, the infected embryos were exposed to a combined treatment (nystatin and extract together), in combinations of all mentioned doses. The embryos injected with only 5% PVP represented the control group. After the applied treatments, the zebrafish embryos were reared for the next 4 days at a temperature of 31° C. and monitored daily for survival as well as filamentation and dissemination of candida using fluorescence microscopy.

[1] = test system: candida, three clinical isolates; test: inhibition of candida filamentation in vitro, checkerboard assay with nystatin in RPMI medium; format: cell-based, Candida albicans
Description: The inhibitory effect of Maqui berry extract and nystatin, one of the most commonly applied topical antifungal drugs, on candida filamentation was investigated in vitro in three clinical isolates in RPMI medium in a checkerboard assay. The extract was tested in a concentration range of 0.125; 0.25 and 0.5 mg/mL (31.25; 62.5 and 125 μg/mL delphinidin, respectively 43.75; 87.5 and 175 μg/mL total anthocyanins), and nystatin in the concentration range 2 μg/mL (MIK), 1 μg/mL (½MIK) and 0.5 μg/mL (¼MIK).

[2] = nystatin alone, MIK dose (2 μg/mL)

SMILES: C[C@@H]1[C@H](O)[C@@H](C)/C=C/C=C/CC/C=C/C=C/C=C/C=C/C(O[C@H]2O[C@H](C)[C@@H](O)[C@H](N)[C@@H]2O)CC2O[C@](O)(CC(O)C(O)CCC(O)CC(O)CC(O)CC(=O)O[C@H]1C)CC(O)C2C(=O)O (stereo partly drawn) [nystatin]
- filamentation in vivo (Candida albicans SC5314; both nystatin concentrations (0.5 and 1 μg/mL)): filamentation was present
- infection (candidiasis) compared to untreated embryos (Candida albicans SC5314; nystatin 0.5 μg/mL (¼MIK) and 1 μg/mL (½MIK)): significantly reduced
- MIK ([1]; clinical isolates, RPMI medium): 2 µg/mL
- filamentation [1, 2]: no filamentation
- growth of isolates [1, 2]: reduced growth
- growth and filamentation ([1]; nystatin alone, ½MIK (1 μg/mL) and ¼MIK (0.5 μg/mL) doses): grew and filamented
